Data reported in PubChem BioAssay AID652087 (The Scripps Research Institute Molecular Screening Center, 2013).
Calls of active or inactive are those of the source.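 How the source made its calls: active means inhibition above 30%; inactive means inhibition at or below 30%.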

Molecular target: Sphingosine 1-phosphate receptor 1 (Homo sapiens) (UniProt P21453)
Test: blockade of S1P-driven S1P1 signalling – cell-based, fluorescence, counter-screen for OPRK1 antagonist project, confirmation (AID 652087)
Settings: Tango EDG-1-bla U2OS, beta-lactamase FRET, S1P antagonism; at 9 µM; active compounds read high

Sphingosine 1-phosphate receptor 1 (Homo sapiens), sequence (P21453 whole entry, looked up): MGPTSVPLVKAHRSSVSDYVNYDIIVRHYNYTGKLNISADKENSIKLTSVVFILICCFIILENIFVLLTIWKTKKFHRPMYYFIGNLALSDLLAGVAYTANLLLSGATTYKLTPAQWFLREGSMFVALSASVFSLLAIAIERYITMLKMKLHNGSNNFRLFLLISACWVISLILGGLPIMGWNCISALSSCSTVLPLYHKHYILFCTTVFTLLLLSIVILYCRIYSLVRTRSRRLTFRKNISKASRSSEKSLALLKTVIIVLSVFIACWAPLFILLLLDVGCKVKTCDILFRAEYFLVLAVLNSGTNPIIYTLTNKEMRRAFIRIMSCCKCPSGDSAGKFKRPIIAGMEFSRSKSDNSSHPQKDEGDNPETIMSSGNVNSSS

Structure (SMILES)	inhibition
CN(C)c1cccc2c1c(NC(=O)Nc1ccc(OCc3ccccc3)cc1)nn2C	-0.3% (inactive)
Nc1c(C(=O)N/N=C/c2ccc3c(c2)OCO3)sc2nnc(-c3ccccc3)c(-c3ccccc3)c12	65%
O=C(/C=C/c1cc(-c2ccccc2)c(C(F)(F)F)s1)c1cccs1	23.6% (inactive)
CCCCCC[n+]1ccccc1/C=C/c1ccc(N(C)C)cc1	99.1%
COc1cccc(C(=O)c2sc3nsc(SCc4ccc(F)cc4)c3c2N)c1	-12.7% (inactive)
C=CCNC(=S)NNC(=O)c1oc2nc(-c3ccc(Cl)cc3)cc(-c3ccccc3)c2c1N	8.18% (inactive)
O=C(Nc1ccc([N+](=O)[O-])cc1)Nc1csc(-c2cccnc2)n1	5.35% (inactive)
CC(=O)c1sc2nc(-c3cccs3)cc(C(F)(F)F)c2c1N	2.13% (inactive)
Oc1c(Cl)cc(Cl)cc1C1Nc2cc(Cl)c(C(F)(F)F)cc2N1 (stereo unspecified)	38.5%
COC(=O)c1cc(-c2ccc(OC)cc2)c(-c2ccc(OC)cc2)s1	9.19% (inactive)
CN(C)c1ccc(-n2nnnc2SCc2ccc(Cl)cc2)cc1	37.2%
Clc1ccc2c(Nc3ccc4c(c3)OCO4)ccnc2c1	-9.65% (inactive)
CSc1ccc(/C=C/c2onc(C)c2[N+](=O)[O-])s1	10.1% (inactive)
COc1cccc(/C=C(\C#N)c2ccc([N+](=O)[O-])cc2)c1OC	52.1%
Nc1c(C(=O)c2ccccc2)sc2nsc(SCCN3CCCC3)c12	27.5% (inactive)
CC(=O)Nc1onc(C)c1-c1nc(-c2ccc(Cl)cc2Cl)cs1	-6.28% (inactive)
O=C(Nc1ccc(Cl)cc1Cl)c1cc([N+](=O)[O-])cc2c1-c1ccc([N+](=O)[O-])cc1C2=O	63.3%
Clc1ccc2nc3c(nc2c1)Nc1ccccc1S3	94.9%
O=[N+]([O-])c1ccc(C2=NN(c3ccccc3)C(c3ccco3)C2)cc1 (stereo unspecified)	124%
C#Cc1cccc(NC(=O)c2sc3nc4c(c(-c5cccs5)c3c2N)CCCC4)c1	46.3%
CCOC(=O)[C@@H](N)CCSC	-3.49% (inactive)
CC(=O)N1CCC(C(=O)O/N=C(\N)c2ccc(Cl)cc2)CC1	16.3% (inactive)

Structure (SMILES)	inhibition
CCOC(=O)c1cn[nH]c1NC(=S)Nc1cccc(C(F)(F)F)c1	71.7%
Cn1c(=O)c2cc3cc(Cl)ccc3nc2c2c(=O)n(-c3ccccc3)c(=O)n(-c3ccccc3)c21	59.2%
COc1ccccc1NC(=O)NCCN1CCN(Cc2ccccc2)CC1	66.8%
CCOC(=O)c1cc(C(=O)OC)c(C)nc1N1CCC(NC2CCCCC2O)CC1 (stereo unspecified)	-1.54% (inactive)
CSc1sc(C(=O)NC(=O)Nc2ccc(Cl)cc2)c2c1-c1nocc1CC2	18.7% (inactive)
CS(=O)(=O)/C(C#N)=C\c1ccc(Cl)s1	-11.8% (inactive)
CC1COC(c2cccc([N+](=O)[O-])c2)N1 (stereo unspecified)	2.16% (inactive)
N#Cc1c(S/C=C(\O)c2cc3ccccc3o2)nc2c(c1C(F)(F)F)CCCC2	14.5% (inactive)
COC(=O)/C=C1\SC(=Nc2ccc(Cl)cc2)N(c2ccc(Cl)cc2)C1=O	42.5%
CN(C)c1cc(NC(=O)Nc2ccccc2)c2ccccc2n1	-14.9% (inactive)
COc1ccc([N+](=O)[O-])c(S(=O)(=O)c2ccc(Cl)cc2)n1	12.7% (inactive)
O=[N+]([O-])c1ccc(N2CCc3ccccc32)cc1	36.8%
O=C(c1cnn(-c2ccc(Cl)cc2)c1C(F)(F)F)N1CCN(c2ncnc3ccsc23)CC1	-19.1% (inactive)
CCOC(=O)c1ccc(N2CC3CCCCN3C2c2cccc(OC)c2O)cc1 (stereo unspecified)	-25.2% (inactive)
O=[N+]([O-])c1ccc(-c2ccc(/C=N/NC(=S)Nc3cccc(F)c3)o2)cc1	67.9%
c1ccc(-c2cc3ncnc(NCc4ccc5c(c4)OCO5)c3s2)cc1	4.01% (inactive)
O=[N+]([O-])c1ccc(N/N=C/c2ccc(-c3cccs3)s2)nc1	79.4%
CCCCCCCCCCCC(=O)ON1C(=O)CCC1=O	51.2%
CCCCNc1ccc2c3c(cccc13)C(=O)N(CCCC)C2=O	93.5%
CCN(CC)c1ccc(/C=C/c2ccc([N+](=O)[O-])cc2C#N)cc1	55.7%
O=[N+]([O-])c1ccc(-c2ccc(/C=N/Nc3ccccc3)o2)cc1	92.1%
O=C(O)C(F)(F)C(F)(F)C(=O)NCc1cccc(Cl)c1	-3.44% (inactive)

Structure (SMILES)	inhibition
S=C(NNc1c(Cl)cncc1Cl)Nc1ccc(Cl)cc1Cl	45.3%
COc1ccccc1C1CCN(Cc2ccc3c(c2)CCC(C)(C)O3)CC1	-5.53% (inactive)
O=C1c2ccc(Cl)c3c(N4CCSCC4)ccc(c23)C(=O)N1c1ccccc1	-15.7% (inactive)
O=C(Nc1ccc(F)c(Cl)c1)c1cc(Br)ccc1O	51.5%
O=c1c2cc(-c3ccccc3)sc2nnn1/N=C/c1cccs1	15.2% (inactive)
Cc1ccc(/C=c2\sc3nc4ccccc4n3c2=O)o1	-0.81% (inactive)
COc1cc([N+](=O)[O-])c(OC)cc1SCc1n[nH]c(=S)n1-c1ccc(C)cc1	3.13% (inactive)
CC(CCC(C)OC(=O)c1ccccc1C(=O)O)OC(=O)c1ccccc1C(=O)O (stereo unspecified)	-6.9% (inactive)
O=C(NNC(=O)C(F)(F)F)c1ccc[nH]1	-19.8% (inactive)
NC(=NC(=O)c1cccc(C(F)(F)F)c1)c1ccc(C(F)(F)F)cn1	47.1%
N#Cc1cccnc1NNC(=O)COCC(=O)O	86.5%
O=[N+]([O-])c1c(Sc2ccc(Cl)cc2)ccc2nsnc12	76.9%
O=C(N/C(=C\c1ccc(-c2ccc([N+](=O)[O-])cc2)o1)c1nc2ccccc2[nH]1)c1ccccc1	73.1%
COc1ccc(OS(=O)(=O)c2sc(Br)cc2Br)cc1	11.6% (inactive)
CCOC(=O)C1CCN(Cc2cccc(NC(=O)c3cccs3)c2)CC1	15.1% (inactive)
CCOC(=O)C1CCN(Cc2cccc(NC(=O)c3ccco3)c2)CC1	15.4% (inactive)
COC(=O)c1ccc(/C=C2\C(=O)Nc3ccccc32)n1-c1ccc(F)cc1	9.9% (inactive)
COC(=O)c1cnn(-c2ccc(Cl)cc2)c1C=C(C#N)C#N	45.1%
Brc1ccc(-c2csc(Nc3ccncc3)n2)cc1	65.4%
O=[N+]([O-])c1ccc(N/N=C2\CCOc3ccc(F)cc32)cc1	23.2% (inactive)
N#Cc1cccc(C#N)c1Oc1ccc(N)cc1	15.3% (inactive)
C=CCn1c(-c2sc3nnc(-c4ccccc4)c(-c4ccccc4)c3c2N)n[nH]c1=S	33.4%
